Assay [1] concerns the target T1, NMB receptors on C-6 cells (Rattus norvegicus, UniProt P24053).
T1 construct: endogenous in cells; host or cells: rat glioblastoma C-6 cells
T1 sequence (P24053 1-390): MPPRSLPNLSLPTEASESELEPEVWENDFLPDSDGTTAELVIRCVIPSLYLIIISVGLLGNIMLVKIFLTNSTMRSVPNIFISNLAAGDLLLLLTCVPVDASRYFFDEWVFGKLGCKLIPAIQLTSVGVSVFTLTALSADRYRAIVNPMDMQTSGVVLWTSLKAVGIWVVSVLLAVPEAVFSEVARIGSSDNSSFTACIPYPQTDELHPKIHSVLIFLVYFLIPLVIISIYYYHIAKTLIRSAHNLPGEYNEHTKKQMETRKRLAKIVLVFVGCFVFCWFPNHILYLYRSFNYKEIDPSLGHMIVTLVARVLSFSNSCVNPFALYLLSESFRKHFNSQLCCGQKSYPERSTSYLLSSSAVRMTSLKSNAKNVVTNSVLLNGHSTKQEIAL
Briefly: Binding of 125I-[D-Tyr0]NMB to C-6 glioblastoma cells. As to conditions: Ki by Cheng method, read-out: Ki 125I-NMB Binding, NMB Receptor, C-6 Cells. The method, then:
Binding of ^125 I-[D-Tyr^0 ]NMB to C-6 glioblastoma and NMB-R transfected cells
Binding studies using rat glioblastoma C-6 or NMB-R transfected cells were performed as described previously [Benya, R. V. et al. Mol. Pharmacol. 42:1058 (1992); and Wang, L-H. et al. Biochem. J. 286:641 (1992)] by suspending disaggregated cells in binding buffer, which was composed of standing buffer ([…], 7.7 mM KCl, 1.0 mM EGTA, 0.02% soybean trypsin inhibitor) additionally containing 50 mM HEPES, 1 mM MgCl2, 1.5 mM CaCl2, 2.2 mM KH2 PO4, 0,015% glutamine, and 0.2% BSA (w/v) (pH 7.4). Incubations contained 75 pM ^125 I-[D-Tyr^0 ]NMB and 15×10^6 C-6 cells/ml or 2×10^6 NMB-R transfected cells/ml, for 60 min at 22° C. Nonsaturable binding of ^125 I-[D-Tyr^0 ]NMB was the amount of radioactivity associated with C-6 cells or NMB-R transfected cells when the incubation mixture contained […] NMB. Nonsaturable binding was<15% of total binding in all experiments; all values are reported herein as saturable binding (i.e., total minus nonsaturable binding).

Assay [2] deals with GRP receptors on rat pancreatic acini. Briefly: Binding of 125I-[Tyr4]bombesin to pancreatic acini. As to conditions: NMB-R transfected cells vs GRP-R on rat pancreatic acini.
Description: Nonsaturable binding was<10% of total binding in all experiments.
Assay [3] concerns the target T2, NMB receptor (Rattus norvegicus, UniProt P24053).
T2 sequence (P24053 1-390): T1 sequence (P24053 1-390)
Description: [3H]IP in C-6 glioblastoma cells (alone or NMB-stimulated). It is filed as cell-based. Set-up: a full length NMB-preferring bombesin receptor clone generated from rat esophagus; expressed in transfected cells. The method, then: (§1) Total phosphoinositides in C-6 cells and in NMB-R transfected cells were determined as described previously, with minor modifications [Benya, R. V. et al. Mol. Pharmacol. 42:1058 (1992); and Wang, L-H. et al. Biochem. Jo 286:641 (1992)]. Cells were grown to confluence in 24-well plates and then loaded with 100 μCi/ml myo-[2-^3 H]inositol in Dulbecco's modified essential medium with 2% fetal bovine serum at 37° C. for 48 hrs. Cells were washed and incubated in phosphoinositide buffer (standard buffer additionally containing 10 mM LiCl, 20 mM HEPES, 2 mM CaCl2, 2% BSA, and 1.2 mM MgSO4) for 15 min and then for 60 min at 37° C. with agonists at various concentrations or with 3 nM NMB (a half-maximal effective concentration) and possible antagonists at different concentrations. Reactions were halted using ice-cold 1% HCl in methanol, and the inositol phosphates (IP) were isolated as described previously [Bologna, M. et al. Cancer 63:1714 (1989); and Endo, T. et al. J. Endocrinolo 131:313 (1991)]. Briefly, after loading of the anion exchange column, free [^3 H]glycerophosphorylinositol was removed by washing with 5 mM disodium tetraborate in 60 mM sodium formate. Total [^3 H]inositol phosphates were then eluted using 100 mM formic acid in 1.0M ammonium formate as described previously [Benya, R. V. et al. Mol. Pharmacol. 42:1058 (1992); and Wang, L-H. et al. Biochem. J. 286:641 (1992 )].
(§2) without SSoctapeptide analog added. C6 glioblastoma cells (50,000
(§3) cells/well) were incubated with myo[2^3 H]inositol for two days,
(§4) washed and then incubated with or without the indicated peptides for 60
(§5) minutes at 37° C. in phosphoinositide buffer containing 10 mM LiCl
(§6) as described in METHODS. [^3 H]IP was measured using Dowex AG1X8 anio

Assay [4] relates to endothelin-1-stimulated increases in [3H]IP. Description: Endothelin-1-stimulated [3H]IP in C-6 glioblastoma cells. Type of assay: cell-based, rat. The method, then:
as §1, §2, §3, §4, §5, §6

Where a SMILES comes first, the peptide text is derived from it. Bridges are numbered along the chain shown (N, C = ends). [ ]: non-standard residue; d: D form. 2Nal = N[C@@H](Cc1ccc2ccccc2c1)C(=O)O; d2Nal = N[C@H](Cc1ccc2ccccc2c1)C(=O)O

Take `CC(C)[C@@H]1NC(=O)[C@H](CCCCN)NC(=O)[C@@H](Cc2ccc3ccccc3c2)NC(=O)[C@H](Cc2ccc(O)cc2)NC(=O)[C@@H](NC(=O)[C@H](N)Cc2ccc3ccccc3c2)CSSC[C@@H](C(=O)N[C@@H](Cc2ccc3ccccc3c2)C(N)=O)NC1=O` [Analog #17, H2 -D-Nal-Cys-Tyr-D-Nal-Lys-Val-Cys-Nal-NH2] (H-[d2Nal]CY[d2Nal]KVC[2Nal]-NH2; disulfide 2-7): the Ki (usually a dissociation constant, usually derived from enzyme kinetics or from competition with a known ligand) in assay [1] worked out at 0.313 ± 0.033 µM. Besides, the “fold greater affinity for NMB than GRP receptors” value in assay [2] is greater than 100 fold.

`CC(C)[C@@H]1NC(=O)[C@H](CCCCN)NC(=O)[C@@H](Cc2c[nH]c3ccccc23)NC(=O)[C@H](Cc2ccc(O)cc2)NC(=O)[C@@H](NC(=O)[C@H](N)Cc2ccc3ccccc3c2)CSSC[C@@H](C(=O)N[C@H](Cc2ccc3ccccc3c2)C(N)=O)NC1=O` [Analog #8, H2 -D-Nal-Cys-Tyr-D-Trp-Lys-Val-Cys-D-Nal-NH2] (H-[d2Nal]CY[dW]KVC[d2Nal]-NH2; disulfide 2-7): the Ki in assay [1] turned out to be 0.67 ± 0.073 µM.

On to `CC(C)[C@@H]1NC(=O)[C@H](CCCCN)NC(=O)[C@@H](Cc2c[nH]c3ccccc23)NC(=O)[C@H](Cc2ccc(O)cc2)NC(=O)[C@@H](NC(=O)[C@H](N)Cc2ccccc2)CSSC[C@@H](C(=O)N[C@@H](Cc2ccc3ccccc3c2)C(N)=O)NC1=O` [Analog #4, H2 -D-Phe-Cys-Tyr-D-Trp-Lys-Val-Cys-Nal-NH2] (H-[dF]CY[dW]KVC[2Nal]-NH2; disulfide 2-7), for which the Ki in assay [1] turned out to be 0.848 ± 0.191 µM.

For the molecule `CC(C)[C@@H]1NC(=O)[C@H](Cc2c[nH]cn2)NC(=O)[C@@H](Cc2c[nH]c3ccccc23)NC(=O)[C@H](Cc2ccc(O)cc2)NC(=O)[C@@H](NC(=O)[C@H](N)Cc2ccc3ccccc3c2)CSSC[C@@H](C(=O)N[C@@H](Cc2ccc3ccccc3c2)C(N)=O)NC1=O` [Analog #14] (H-[d2Nal]CY[dW]HVC[2Nal]-NH2; disulfide 2-7; N-terminus assumed), the Ki in assay [1] was 4.94 ± 0.93 µM.

Take `C[C@@H](O)[C@H](NC(=O)[C@@H]1CSSC[C@H](NC(=O)[C@H](N)Cc2ccc3ccccc3c2)C(=O)N[C@@H](Cc2ccc(O)cc2)C(=O)N[C@H](Cc2c[nH]c3ccccc23)C(=O)N[C@@H](CCCCN)C(=O)N[C@@H](Cc2ccc3ccccc3c2)C(=O)N1)C(N)=O` [Analog #2, H2 -D-Nal-Cys-Tyr-D-Trp-Lys-Nal-Cys-Thr-NH2]: the Ki in assay [1] was determined as 0.226 ± 0.036 µM. Moreover, in assay [3], the “effect on NMB-stimulated increases in [3H]IP in C-6 cells” value is given as “inhibited”. Further, the “[3H]IP, no peptide added” value in assay [3] (analog 10 μM, 60 min 37° C., control 7.2 ± 1.0) is 7.3 ± 1.2 dpm × 10^3. In addition, the “[3H]IP with NMB (10 nM)” value in assay [3] (analog 10 μM, NMB alone 21.0 ± 1.8) is given as 14.3 ± 4.2 dpm × 10^3. The “effect on endothelin-1-stimulated increases in [3H]IP in C-6 cells” value in assay [4] is listed as “no effect”. The “[3H]IP with ET-1 (0.1 nM)” value in assay [4] (analog 10 μM, ET-1 alone 11.0 ± 2.1) is 11.2 ± 1.9 dpm × 10^3.

On to `CC(C)[C@@H]1NC(=O)[C@H](CCCCN)NC(=O)[C@@H](Cc2c[nH]c3ccccc23)NC(=O)[C@H](Cc2ccc(O)cc2)NC(=O)[C@@H](NC(=O)[C@H](N)Cc2c[nH]c3ccccc23)CSSC[C@@H](C(=O)N[C@@H](Cc2ccc3ccccc3c2)C(N)=O)NC1=O` [Analog #12, H2 -D-Trp-Cys-Tyr-D-Trp-Lys-Val-Cys-Nal-NH2] (H-[dW]CY[dW]KVC[2Nal]-NH2; disulfide 2-7), for which the Ki in assay [1] was 1.78 ± 0.109 µM.

As for `C[C@@H](O)[C@@H]1NC(=O)[C@H](CCCCN)NC(=O)[C@@H](Cc2c[nH]c3ccccc23)NC(=O)[C@H](Cc2ccc(O)cc2)NC(=O)[C@@H](NC(=O)[C@H](N)Cc2ccccc2)CSSC[C@@H](C(=O)N[C@@H](Cc2ccc3ccccc3c2)C(N)=O)NC1=O` [Analog #7, H2 -D-phe-Cys-Tyr-D-Trp-Lys-Thr-Cys-Nal-NH2] (H-[dF]CY[dW]KTC[2Nal]-NH2; disulfide 2-7), in assay [1], the Ki was 1.45 ± 0.078 µM.

For `CC(C)[C@@H]1NC(=O)[C@H](CCCCN)NC(=O)[C@@H](Cc2c[nH]c3ccccc23)NC(=O)[C@H](Cc2ccc(O)cc2)NC(=O)[C@H](NC(=O)[C@H](N)Cc2ccc3ccccc3c2)CSSC[C@@H](C(=O)N[C@@H](Cc2ccc3ccccc3c2)C(N)=O)NC1=O` [Analog #10, H2 -D-Nal-D-Cys-Tyr-D-Trp-Lys-Val-Cys-Nal-NH2] (H-[d2Nal][dC]Y[dW]KVC[2Nal]-NH2; disulfide 2-7), the Ki in assay [1] stood at 1.15 ± 0.518 µM.

In the case of `NCCCC[C@@H]1NC(=O)[C@@H](Cc2c[nH]c3ccccc23)NC(=O)[C@H](Cc2ccc(O)cc2)NC(=O)[C@@H](NC(=O)[C@H](N)Cc2ccc3ccccc3c2)CSSC[C@@H](C(=O)N[C@@H](Cc2ccc3ccccc3c2)C(N)=O)NC(=O)[C@H](Cc2ccccc2)NC1=O` [Analog #13, H2 -D-Nal-Cys-Tyr-D-Trp-Lys-Phe-Cys-Nal-NH2] (H-[d2Nal]CY[dW]KFC[2Nal]-NH2; disulfide 2-7), the Ki in assay [1] was 0.213 ± 0.013 µM. In assay [2], the “fold greater affinity for NMB than GRP receptors” value is greater than 100 fold.

In the case of `CC(C)[C@@H]1NC(=O)[C@H](CCCCN)NC(=O)[C@@H](Cc2c[nH]c3ccccc23)NC(=O)[C@H](Cc2ccc(O)cc2)NC(=O)[C@@H](NC(=O)[C@H](N)Cc2ccc3ccccc3c2)CSSC[C@H](C(=O)N[C@@H](Cc2ccc3ccccc3c2)C(N)=O)NC1=O` [Analog #11, H2 -D-Nal-Cys-Tyr-D-Trp-Lys-Val-D-Cys-Nal-NH2] (H-[d2Nal]CY[dW]KV[dC][2Nal]-NH2; disulfide 2-7), in assay [1], the Ki is 1.74 ± 0.345 µM.

For the molecule `CC(C)[C@@H]1NC(=O)[C@H](CCCCN)NC(=O)[C@@H](Cc2c[nH]c3ccccc23)NC(=O)[C@H](Cc2ccc(O)cc2)NC(=O)[C@@H](NC(=O)[C@@H](N)Cc2ccc3ccccc3c2)CSSC[C@@H](C(=O)N[C@H](Cc2ccc3ccccc3c2)C(N)=O)NC1=O` [Analog #9, H2 -Nal-Cys-Tyr-D-Trp-Lys-Val-Cys-D-Nal-NH2] (H-[2Nal]CY[dW]KVC[d2Nal]-NH2; disulfide 2-7), the Ki in assay [1] was determined as 1.16 ± 0.214 µM.

(Values after US5462926A (Biomeasure, Inc., priority 1993, dated 1995).)
